The results in this text go back to US6172066A, “Dihydropyrimidines and uses thereof” (Synaptic Pharmaceutical Corporation, priority 1997, dated 2001).

Structures can show the parent of a compound that is named as a salt.

Assay [1] concerns the target T1, α1B Human Adrenergic Receptor (Homo sapiens, UniProt P35368).
T1 construct: The entire coding region of a1B (1563 bp); expressed in transfected cells
T1 sequence (P35368 1-520): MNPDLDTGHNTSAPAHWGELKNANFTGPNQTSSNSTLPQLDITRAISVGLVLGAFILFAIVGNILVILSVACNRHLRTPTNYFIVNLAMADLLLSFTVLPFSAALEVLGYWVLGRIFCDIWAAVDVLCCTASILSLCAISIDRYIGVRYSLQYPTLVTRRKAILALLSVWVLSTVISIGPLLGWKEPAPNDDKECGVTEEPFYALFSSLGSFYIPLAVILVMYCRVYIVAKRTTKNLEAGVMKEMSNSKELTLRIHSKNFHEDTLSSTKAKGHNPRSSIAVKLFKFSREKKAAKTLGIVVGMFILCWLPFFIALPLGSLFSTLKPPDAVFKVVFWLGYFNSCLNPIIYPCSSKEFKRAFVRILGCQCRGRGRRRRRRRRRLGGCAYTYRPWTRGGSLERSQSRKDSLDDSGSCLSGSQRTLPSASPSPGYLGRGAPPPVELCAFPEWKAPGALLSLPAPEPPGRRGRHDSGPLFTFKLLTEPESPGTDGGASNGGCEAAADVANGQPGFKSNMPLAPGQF
Put plainly: Radioligand binding, [3H]prazosin displacement, cloned human α1B receptor (LM(tk-) cell membranes). Particulars: [3H]prazosin 0.5 nM, 37° C., 20 min; for Ki: read-out: hα1B pKi (converted). As to the method:
(§1) The activity of compounds at the different human receptors was determined in vitro using cultured cell lines that selectively express the receptor of interest. These cell lines were prepared by transfecting the cloned cDNA or cloned genomic DNA or constructs containing both genomic DNA and cDNA encoding the human α-adrenergic receptors as follows:
The entire coding region of a1B (1563 bp), including 200 base pairs and 5' untranslated sequence (5' UT) and 600 bp of 3' untranslated sequence (3' UT), was cloned into the EcoRI site of pCEXV-3 eukaryotic expression vector. The construct involved ligating the full-length containing EcoRI brainstem cDNA fragment from λ ZapII into the expression vector. Stable cell lines were selected as described above. The cell line used herein was designated L-α1B and was deposited with the American Type Culture Collection, 12301 Parklawn Drive, Rockville, Md. 20852, U.S.A. under the provisions of the Budapest Treaty for the International Recognition of the Deposit of Microorganisms for the Purposes of Patent Procedure. The cell line L-α1B was accorded ATCC Accession No. CRL 11139, on Sep. 25, 1992.
(§2) Transfected cells from culture flasks were scraped into 5 ml of 5 mM Tris-HCl, 5 mM EDTA, pH 7.5, and lysed by sonication. The cell lysates were centrifuged at 1000 rpm for 5 min at 4° C., and the supernatant was centrifuged at 30,000×g for 20 min at 4° C. The pellet was suspended in 50 mM Tris-HCl, 1 mM MgCl2, and 0.1% ascorbic acid at pH 7.5. Binding of the α1 antagonist [^3 H]prazosin (0.5 nM, specific activity 76.2 Ci/mmol) to membrane preparations of LM(tk-) cells was done in a final volume of 0.25 ml and incubated at 37° C. for 20 min. Nonspecific binding was determined in the presence of 10 μM phentolamine. The reaction was stopped by filtration through GF/B filters using a cell harvester. Inhibition experiments, routinely consisting of 7 concentrations of the tested compounds, were analyzed using a non-linear regression curve-fitting computer program to obtain Ki values.

In assay [2] the target is T2, α1D Human Adrenergic Receptor (Homo sapiens, UniProt P25100).
T2 construct: The entire coding region of α1D (1719 bp); expressed in transfected cells
T2 sequence (P25100 1-572): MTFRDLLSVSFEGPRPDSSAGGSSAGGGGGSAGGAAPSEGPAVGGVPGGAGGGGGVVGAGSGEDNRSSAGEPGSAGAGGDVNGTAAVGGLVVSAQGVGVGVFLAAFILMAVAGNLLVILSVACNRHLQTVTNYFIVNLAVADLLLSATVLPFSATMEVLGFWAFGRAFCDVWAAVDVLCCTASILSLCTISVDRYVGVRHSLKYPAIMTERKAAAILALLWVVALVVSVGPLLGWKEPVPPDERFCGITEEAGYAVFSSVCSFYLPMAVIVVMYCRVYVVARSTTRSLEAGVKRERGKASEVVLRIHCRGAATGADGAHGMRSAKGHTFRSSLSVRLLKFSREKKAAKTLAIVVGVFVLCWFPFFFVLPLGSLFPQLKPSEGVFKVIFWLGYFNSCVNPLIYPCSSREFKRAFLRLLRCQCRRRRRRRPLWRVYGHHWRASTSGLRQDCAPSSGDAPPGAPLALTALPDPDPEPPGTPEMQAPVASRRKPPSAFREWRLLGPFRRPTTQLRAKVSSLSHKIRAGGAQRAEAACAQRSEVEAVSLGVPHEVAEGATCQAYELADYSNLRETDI
Put plainly: Radioligand binding, [3H]prazosin displacement, cloned human α1D receptor (LM(tk-) cell membranes). Particulars: [3H]prazosin 0.5 nM, 37° C., 20 min; for Ki: read-out: hα1D pKi (converted). As to the method: as §1
The entire coding region of α1D (1719 bp), including 150 base pairs of 5' untranslated sequence (5' UT) and 300 bp of 3' untranslated sequence (3' UT), was cloned into the BamHI and ClaI sites of the polylinker-modified eukaryotic expression vector pCEXV-3, called EXJ.HR. The construct involved the ligation of partial overlapping human lymphocyte genomic and hippocampal cDNA clones: 5' sequence were contained on a 1.2 kb SmaI-XhoI genomic fragment (the vector-derived BamHI site was used for subcloning instead of the internal insert-derived SmaI site) and 3' sequences were contained on an 1.3 kb XhoI-ClaI cDNA fragment (the ClaI site was from the vector polylinker). Stable cell lines were obtained by cotransfection with the plasmid α1A/EXJ (expression vector containing the α1A receptor gene (old nomenclature)) and the plasmid pGCcos3neo (plasmid containing the aminoglycoside transferase gene) into LM(tk-) cells using calcium phosphate technique. The cells were grown, in a controlled environment (37° C., 5% CO2), as monolayers in Dulbecco's modified Eagle's Medium (GIBCO, Grand Island, N.Y.) containing 25 mM glucose and supplemented with 10% bovine calf serum, 100 units/ml penicillin g, and 100 μg/ml streptomycin sulfate. Stable clones were then selected for resistance to the antibiotic G-418 (1 mg/ml), and membranes were harvested and assayed for their ability to bind [^3 H]prazosin as described below (see "Radioligand Binding assays").
The cell line expressing the human α1D receptor used herein was designated L-α1A (old nomenclature) and was deposited with the American Type Culture Collection, 12301 Parklawn Drive, Rockville, Md. 20852, U.S.A. under the provisions of the Budapest Treaty for the International Recognition of the Deposit of Microorganisms for the Purposes of Patent Procedure. The cell line expressing the human α1D receptor, was accorded ATCC Accession No. CRL 11138, and was deposited on Sep. 25, 1992.
as §2

In the case of `COCC1=C(C(=O)OC)C(c2ccc(F)c(F)c2)N(C(=O)NCCN[C@H]2CC[C@@](C#N)(c3ccccc3)CC2)C(=O)N1` (single isomer, unassigned; (+)) [Example 5, (+)-trans-6-(3,4-Difluorophenyl)-1-{N-[2-(4-cyano-4-phenyl-cyclohexylamino)ethyl]}carboxamido-5-methoxycarbonyl-4-methoxymethyl-2-oxo-1,2,3,6-tetrahydropyrimidine hydrochloride], the Ki in assay [1] was 26.9 nM; in assay [2], 123 nM.
On to `COCC1=C(C(=O)OC)C(c2ccc(F)c(F)c2)N(C(=O)NCCN[C@H]2CC[C@H](c3ccccn3)CC2)C(=O)N1` (single isomer, unassigned; (+)) [Example 7, (+)-trans-6-(3,4-Difluorophenyl)-1-{N-[2-(4-(2-pyridyl)-cyclohexylamino)ethyl]}carboxamido-5-methoxycarbonyl-4-methoxymethyl-2-oxo-1,2,3,6-tetrahydropyrimidine hydrochloride], for which the values for the Ki in assay [1] and in assay [2] were 1120 nM and 3890 nM, respectively.
For the molecule `COCC1=C(C(=O)OC)C(c2ccc(F)c(F)c2)N(C(=O)NCCN[C@H]2CC[C@](C#N)(c3ccccc3)CC2)C(=O)N1` (single isomer, unassigned; (+)) [Example 4, (+)-cis-6-(3,4-Difluorophenyl)-1-{N-[2-(4-cyano-4-phenyl-cyclohexylamino)ethyl]}carboxamido-5-methoxycarbonyl-4-methoxymethyl-2-oxo-1,2,3,6-tetrahydropyrimidine hydrochloride], the Ki in assay [1] is 18.6 nM; in assay [2], 100 nM.
`COCC1=C(C(=O)OC)C(c2ccc(F)c(F)c2)N(C(=O)NCCN[C@H]2CC[C@](C(=O)OC)(c3ccccc3)CC2)C(=O)N1` (single isomer, unassigned; (+)) [Example 11, (+)-cis-6-(3,4-Difluorophenyl)-1-{N-[2-(4-methoxycarbonyl-4-phenyl-cyclohexylamino)ethyl]}carboxamido-5-methoxycarbonyl-4-methoxymethyl-2-oxo-1,2,3,6-tetrahydropyrimidine hydrochloride]: the Ki in assay [1] is 27.5 nM; in assay [2], 126 nM.
Consider `COC(=O)C1=C(C)NC(=O)N(C(=O)NCCN[C@H]2CC[C@](C#N)(c3ccccc3F)CC2)C1c1ccc(F)c(F)c1` (single isomer, unassigned; (+)) [Example 13, (+)-cis-6-(3,4-Difluorophenyl)-1-{N-[2-(4-cyano-4-(2-fluorophenyl)-cyclohexylamino)ethyl]}carboxamido-5-methoxycarbonyl-4-methyl-2-oxo-1,2,3,6-tetrahydropyrimidine hydrochloride], for which the Ki is 13.5 nM in assay [1] and 51.3 nM in assay [2].
Regarding “cis-6-(3,4,5-Trifluorophenyl)-1-{N-[2-(4-cyano-4-phenyl-cyclohexylamino)ethyl]}-carboxamido-5-acetyl-4-methoxymethyl-2-oxo-1,2,3,6-tetrahydropyrimidine hydrochloride [Example 2]”, the “hα1B pKi” value in assay [1] amounted to 7.76. Further, the “hα1D pKi” value in assay [2] was 7.05.
In the case of `COCC1=C(C(=O)OC)C(c2ccc(F)c(F)c2)N(C(=O)NCCN[C@H]2CC[C@](C#N)(c3ccccn3)CC2)C(=O)N1` (single isomer, unassigned; (+)) [Example 14, (+)-cis-6-(3,4-Difluorophenyl)-1-{N-[2-(4-cyano-4-(2-pyridyl)-cyclohexylamino)ethyl]}carboxamido-5-methoxycarbonyl-4-methoxymethyl-2-oxo-1,2,3,6-tetrahydropyrimidine hydrochloride], the Ki was 282 nM in assay [1] and 1100 nM in assay [2].
With `CCC1=C(C(N)=O)C(c2ccc(F)cc2F)N(C(=O)NCCN[C@H]2CC[C@](C#N)(c3ccccc3)CC2)C(=O)N1` (single isomer, unassigned; (+)) [Example 3, (+)-cis-5-Carboxamido-6-(2,4-difluorophenyl)-1-{N-[2-(4-cyano-4-phenyl-cyclohexylamino)ethyl]}carboxamido-4-ethyl-2-oxo-1,2,3,6-tetrahydropyrimidine hydrochloride], the Ki in assay [1] is 100 nM; in assay [2], 240 nM.
